≈ marks a conversion by molar mass, not a printed value.
Key:
[1] = Drug recovery during in vitro release experiments; type: physicochemical; conditions: after 4 hr incubation at 37° C.
From the text: Release data of 24 hr and 48 hr, in Table 4, are underlined because the drug recovered at these two time points show significant degradation (data are shown in the bottom of the table in the Drug Recovery section).

[2] = Dasatinib solubility in selected solvents with or without acid doping (by HPLC); conditions: organic solvent or mixture

For Cc1nc(Nc2ncc(C(=O)Nc3c(C)cccc3Cl)s2)cc(N2CCN(CCO)CC2)n1 [Dasatinib, dasatinib], the “stability of dasatinib during incubation” value [1] was “degradation of dasatinib is observed”, the solubility ([2]; 1% TFA in benzyl alcohol) was 56.5 mg/mL (≈ 116 mM) and the solubility ([2]; 2% TFA in benzyl alcohol) was 103 mg/mL (≈ 211 mM). The solubility ([2]; 3% TFA in 7.5% water in benzyl alcohol) was 157 mg/mL (≈ 322 mM), the solubility ([2]; 3% TFA in benzyl alcohol) was 141 mg/mL (≈ 289 mM) and the solubility ([2]; 7.5% water in benzyl alcohol) was 32.8 mg/mL (≈ 67.1 mM).
